The results in this text go back to patent US9018224B2, “Substituted cyclopropyl compounds useful as GPR119 agonists” (Merck Sharp & Dohme Corp., priority 2011, dated 2015).

Each structure is given as a SMILES string.

The term EC50 denotes the concentration that produces a half-maximal response.

In this experiment the target is T1, human GPR119 (Homo sapiens, UniProt Q8TDV5).
T1 sequence (Q8TDV5 1-308 limits assumed): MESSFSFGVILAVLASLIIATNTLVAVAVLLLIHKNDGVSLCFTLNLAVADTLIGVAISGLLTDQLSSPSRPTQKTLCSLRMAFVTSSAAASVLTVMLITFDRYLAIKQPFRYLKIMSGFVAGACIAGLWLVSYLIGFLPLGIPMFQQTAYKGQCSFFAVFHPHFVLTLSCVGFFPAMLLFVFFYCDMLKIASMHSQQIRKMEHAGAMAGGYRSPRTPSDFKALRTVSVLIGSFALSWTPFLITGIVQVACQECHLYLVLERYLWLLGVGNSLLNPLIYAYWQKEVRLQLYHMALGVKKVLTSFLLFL
Briefly: Measurement of GPR119 signaling by cAMP (LANCE cAMP kit or HTRF) in HEK293 cells transfected with human GPR119. The conditions noted are these: agonist cAMP response in HEK293 cells stably transfected with human GPR119; patent does not say which of the two cAMP formats (LANCE or HTRF). Type of experiment: cell-based. Put shortly: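 LANCE TR-FRET cAMP readout; detection with Eu-SA/biotin-cAMP tracer for 3 h, signal converted to cAMP via standard curve, duplicates, 4-parameter fit vs DMSO basal and internal agonist maximum.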
In general terms: In TR-FRET formats the signal depends on donor and acceptor labels being close together.
In turn, `N#Cc1cc(OCC[C@@H]2C[C@@H]2C2CCN(c3ncc(Cl)cn3)CC2)ccc1CC(=O)N1CCC1` [Example 23, 2-[2-(azetidin-1-yl)-2-oxoethyl]-5-(2-{(1S,2R)-2-[1-(5-chloropyrimidin-2-yl)piperidin-4-yl]cyclopropyl}ethoxy)benzonitrile] gave an EC50 of 0.32 nM. That is a sub-nanomolar value. For `CN(CCC1CCOCC1)C(=O)Cc1ccc(OCC[C@@H]2C[C@@H]2C2CCN(c3ncc(Cl)cn3)CC2)cc1F` [Example 165], the EC50 turned out to be 2.6 nM. On to `CC1CN(C(=O)Cc2ccc(OCC[C@@H]3C[C@@H]3C3CCN(c4ncc(Cl)cn4)CC3)cc2F)C1` [Example 64], for which the EC50 amounted to 0.95 nM. The value for `CCC(C)NC(=O)Cc1ccc(OCC[C@@H]2C[C@@H]2C2CCN(c3ncc(Cl)cn3)CC2)cc1F` (stereo partly shown) [Example 100] was 1.8 nM. With `CN(CC1CCCCO1)C(=O)Cc1ccc(OCC[C@@H]2C[C@@H]2C2CCN(c3ncc(Cl)cn3)CC2)cc1F` (stereo partly shown) [Example 156], a half-maximal response (EC50) required 2.8 nM. `CN(CC1CCCCC1)C(=O)Cc1ccc(OCC[C@@H]2C[C@@H]2C2CCN(c3ncc(Cl)cn3)CC2)cc1F` [Example 167] showed a 50% effective concentration (EC50) of 7.6 nM.

For `CC1c2nc(C(F)(F)F)nn2CCN1C(=O)Cc1ccc(OCC[C@@H]2C[C@@H]2C2CCN(c3ncc(Cl)cn3)CC2)cc1F` (stereo partly shown) [Example 177], it took 0.6 nM to reach a half-maximal effect (EC50).

With `O=C(Cc1ccc(OCC[C@@H]2C[C@@H]2C2CCN(c3ncc(Cl)cn3)CC2)cc1F)N1CCCC1CO` (stereo partly shown) [Example 108], it took 2.5 nM to reach a half-maximal effect (EC50). For `O=C(Cc1ccc(OCC[C@@H]2C[C@@H]2C2CCN(c3ncc(Cl)cn3)CC2)cc1F)N1CC(O)C1` [Example 65] the value was 0.22 nM; for `O=C(Cc1ccc(OCC[C@@H]2C[C@@H]2C2CCN(c3ncc(Cl)cn3)CC2)c(F)c1)N1CCC1` [Example 250], 2.2 nM; for `CN(C(=O)Cc1ccc(OCC[C@@H]2C[C@@H]2C2CCN(c3ncc(Cl)cn3)CC2)cc1F)C1CCS(=O)(=O)C1` (stereo partly shown) [Example 162], 1.3 nM.

Regarding `O=C(Cc1ccc(OCC[C@@H]2C[C@@H]2C2CCN(c3ncc(Cl)cn3)CC2)cc1F)NCC1CCCCC1` [Example 112], it took 6.1 nM to reach a half-maximal effect (EC50). In turn, `COCc1cnc(N2CCC([C@H]3C[C@H]3CCOc3ccc(CC(=O)N4CC(C)(C)C4)cc3)CC2)nc1` [Example 13] displayed an EC50 of 5.2 nM. This EC50 and that of the compound before are within 1.5-fold of each other.

The compound `COc1cnc(N2CCC([C@H]3C[C@H]3CCOc3ccc(CC(=O)N(C)C)c(F)c3)CC2)nc1` [Example 36] had an EC50 of 1.7 nM. The value for `O=C(Cc1ccc(OCC[C@@H]2C[C@@H]2C2CCN(c3ncc(Cl)cn3)CC2)cc1)N1CCC1` [Example 1, 1-(azetidin-1-yl)-2-[4-(2-{(1S,2R)-2-[1-(5-chloropyrimidin-2-yl)piperidin-4-yl]cyclopropyl}ethoxy)phenyl]ethanone] was 0.79 nM; that for `O=C(Cc1ccc(OCC[C@@H]2C[C@@H]2C2CCN(c3ncc(Cl)cn3)CC2)cc1F)N1CCc2sc(C(F)(F)F)nc2C1` [Example 186] was 1.7 nM.

The compound `CCOC(=O)CN(C)C(=O)Cc1ccc(OCC[C@@H]2C[C@@H]2C2CCN(c3ncc(Cl)cn3)CC2)cc1F` [Example 171] showed a half-maximal effective concentration (EC50) of 1.7 nM. In other words, the single-digit nanomolar range.

With `CN(C(=O)Cc1ccc(OCC[C@@H]2C[C@@H]2C2CCN(c3ncc(Cl)cn3)CC2)cc1F)C1CCCCC1` [Example 164], the EC50 amounted to 1.6 nM. In turn, `O=C(Cc1ccc(OCC[C@@H]2C[C@@H]2C2CCN(c3ncc(Cl)cn3)CC2)cc1F)N1CCC1` [Example 60, 1-(azetidin-1-yl)-2-[4-(2-{(1S,2R)-2-[1-(5-chloropyrimidin-2-yl)piperidin-4-yl]cyclopropyl}ethoxy)-2-fluorophenyl]ethanone] returned an EC50 of 0.19 nM. Against the preceding compound, the EC50 is about 8.4-fold lower. `CCc1cnc(N2CCC([C@H]3C[C@H]3CCOc3ccc(CC(=O)NC4CC4)c(F)c3)CC2)nc1` [Example 208] gave an EC50 of 1.9 nM. The compound `Cn1nc(C(F)(F)F)c2c1CN(C(=O)Cc1ccc(OCC[C@@H]3C[C@@H]3C3CCN(c4ncc(Cl)cn4)CC3)cc1F)CC2` [Example 189] registered an EC50 of 6 nM. For `CC1(CNC(=O)Cc2ccc(OCC[C@@H]3C[C@@H]3C3CCN(c4ncc(Cl)cn4)CC3)cc2F)CCC1` [Example 96], it took 5.1 nM to reach a half-maximal effect (EC50). The compound `CC(F)(F)CNC(=O)Cc1ccc(OCC[C@@H]2C[C@@H]2C2CCN(c3ncc(Cl)cn3)CC2)cc1F` [Example 105] came in with an EC50 of 1.5 nM. `CC1(NC(=O)Cc2ccc(OCC[C@@H]3C[C@@H]3C3CCN(c4ncc(Cl)cn4)CC3)cc2F)CCCCC1` [Example 91] displayed an EC50 of 9.3 nM.

`COc1cnc(N2CCC([C@H]3C[C@H]3CCOc3cc(F)c(CC(=O)N4CC(F)(F)C4)c(F)c3)CC2)nc1` [Example 217] gave an EC50 of 0.07 nM. In the case of `O=C(Cc1ccc(OCC[C@@H]2C[C@@H]2C2CCN(c3ncc(Cl)cn3)CC2)cc1F)N1CCc2c(C3CC3)n[nH]c2C1` [Example 142], the midpoint of the response, the EC50, lay at 3.1 nM. Take `COCc1cnc(N2CCC([C@H]3C[C@H]3CCOc3cc(F)c(CC(=O)N4CC(C(C)(C)O)C4)c(F)c3)CC2)nc1` [Example 222]: the EC50 worked out at 2 nM.

For `CN(CCCO)C(=O)Cc1ccc(OCC[C@@H]2C[C@@H]2C2CCN(c3ncc(Cl)cn3)CC2)cc1F` [Example 153], the EC50 came to 1.6 nM. With `CC1c2ncc(C(F)(F)F)n2CCN1C(=O)Cc1ccc(OCC[C@@H]2C[C@@H]2C2CCN(c3ncc(Cl)cn3)CC2)cc1F` (stereo partly shown) [Example 180], the EC50 stood at 0.82 nM. The compound `O=C(Cc1ccc(OCC[C@@H]2C[C@@H]2C2CCN(c3ncc(Cl)cn3)CC2)cc1)N1CC(F)C1` [Example 6] yielded an EC50 of 0.89 nM. On to `CCOc1cnc(N2CCC([C@H]3C[C@H]3CCOc3cc(F)c(CC(=O)N4CCC4)c(F)c3)CC2)nc1` [Example 229, 1-(azetidin-1-yl)-2-[4-(2-{(1S,2R)-2-[1-(5-ethoxypyrimidin-2-yl)piperidin-4-yl]cyclopropyl}ethoxy)-2,6-difluorophenyl]ethanone], for which the EC50 came out at 0.14 nM. `COCCN(C)C(=O)Cc1ccc(OCC[C@@H]2C[C@@H]2C2CCN(c3ncc(Cl)cn3)CC2)cc1F` [Example 104] came in with an EC50 of 1.3 nM.

Turning to `O=C(Cc1ccc(OCC[C@@H]2C[C@@H]2C2CCN(c3ncc(Cl)cn3)CC2)cc1F)N1CC(F)(F)C1` [Example 71], the EC50 stood at 1.2 nM. On to `O=C(Cc1ccc(OCC[C@@H]2C[C@@H]2C2CCN(c3ncc(Cl)cn3)CC2)cc1F)N1CCc2ncncc2C1` [Example 127], for which a half-maximal response (EC50) required 1.5 nM. On to `CC1(NC(=O)Cc2ccc(OCC[C@@H]3C[C@@H]3C3CCN(c4ncc(Cl)cn4)CC3)cc2F)CCCC1` [Example 94], for which it took 6.5 nM to reach a half-maximal effect (EC50). Take `O=C(Cc1ccc(OCC[C@@H]2C[C@@H]2C2CCN(c3ncc(Cl)cn3)CC2)cc1F)N1CCn2nc(C3CC3)nc2C1` [Example 148]: a half-maximal effect (EC50) was put at 1.2 nM. As for `CCOCc1cnc(N2CCC([C@H]3C[C@H]3CCOc3ccc(CC(=O)N4CC(O)C4)c(F)c3)CC2)nc1` [Example 199, 2-(4-{2-[(1S,2R)-2-{1-[5-(ethoxymethyl)pyrimidin-2-yl]piperidin-4-yl}cyclopropyl]ethoxy}-2-fluorophenyl)-1-(3-hydroxyazetidin-1-yl)ethanone], the EC50 was found to be 1.9 nM.
